US20240209028A1, “CNP COMPOUNDS” (priority 2022, published 2024)
Starred links: 1 amine or outer side, 2 acyl side, 3 side chain; linkers in the order of their positions; H or OH if unused. Positions of bridges follow the written chain, without caps; N, C: chain ends. Residues, ends and D or L forms follow the SMILES beside them. *: point of attachment. C18 diacid = O=C(O)CCCCCCCCCCCCCCCCC(=O)*; γGlu = O=C(O)[C@H](CCC(=O)[*:2])N[*:1]; AEEA = NCCOCCOCC(=O)O

Target: T1, human natriuretic peptide receptor 2 (hNPR2) (Homo sapiens, UniProt P20594)
T1 construct: expressed in transfected cells; host or cells: HEK293 (ATCC CRL-1573), clone 35, co-transfected with pGloSensor-42F
T1 sequence (P20594 23-1047): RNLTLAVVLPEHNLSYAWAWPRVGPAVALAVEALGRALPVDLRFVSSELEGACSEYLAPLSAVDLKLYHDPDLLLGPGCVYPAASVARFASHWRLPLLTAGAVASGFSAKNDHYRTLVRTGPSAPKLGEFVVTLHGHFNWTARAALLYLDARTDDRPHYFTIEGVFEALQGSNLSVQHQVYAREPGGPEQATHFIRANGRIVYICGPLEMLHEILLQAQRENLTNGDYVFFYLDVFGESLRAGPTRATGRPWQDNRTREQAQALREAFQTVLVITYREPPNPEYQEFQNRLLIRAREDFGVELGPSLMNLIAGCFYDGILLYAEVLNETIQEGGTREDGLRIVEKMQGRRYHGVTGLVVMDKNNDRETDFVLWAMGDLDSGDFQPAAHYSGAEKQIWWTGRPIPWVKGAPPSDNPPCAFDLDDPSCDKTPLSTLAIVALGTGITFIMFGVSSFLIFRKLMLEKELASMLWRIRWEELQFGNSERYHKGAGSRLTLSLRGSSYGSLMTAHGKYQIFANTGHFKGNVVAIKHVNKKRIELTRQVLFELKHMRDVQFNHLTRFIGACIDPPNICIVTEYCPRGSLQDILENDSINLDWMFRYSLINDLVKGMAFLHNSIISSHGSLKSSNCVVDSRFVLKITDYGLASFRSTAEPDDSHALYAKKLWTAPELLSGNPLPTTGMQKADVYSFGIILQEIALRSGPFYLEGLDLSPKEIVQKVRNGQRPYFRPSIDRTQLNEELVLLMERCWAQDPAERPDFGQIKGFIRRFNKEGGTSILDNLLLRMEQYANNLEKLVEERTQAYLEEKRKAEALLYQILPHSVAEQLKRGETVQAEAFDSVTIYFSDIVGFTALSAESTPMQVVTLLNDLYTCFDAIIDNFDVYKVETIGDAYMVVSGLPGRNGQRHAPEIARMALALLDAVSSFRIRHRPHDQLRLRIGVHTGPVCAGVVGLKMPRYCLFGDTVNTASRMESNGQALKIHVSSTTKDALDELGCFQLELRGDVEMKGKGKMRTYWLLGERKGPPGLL
Assay: In vitro hNPR2 activity assay (cGMP GloSensor reporter, HEK293)
Format: cell-based
Conditions: for hNPR2 0% HSA. [EC50% rel CNP]: potency relative to CNP22 (0065); for EC50: 0% HSA, HEK293-hNPR2/GloSensor cells
Method: To evaluate the in vitro activity of CNP22 (0065; Chem. 1) and CNP compounds of the invention, they were tested for their ability to induce production of cyclic guanosine monophosphate (cGMP) in reporter cells expressing the human natriuretic peptide receptor 2 (hNPR2).
Cell culture: To produce the reporter cell line, HEK293 (ATCC® CRL-1573™) cells were stably transfected with the pGloSensor-42F reporter plasmid (GloSensor cGMP reporter—luciferase, Promega) and an expression plasmid encoding the hNPR2 receptor. A single cell clone was isolated for the reporter cell line. When reporter cells are exposed to an hNPR2 activating compound, hNPR2 cause production of cGMP. […] Active GloSensor luciferase is able to convert luciferin to oxyluciferin, a process that produces bioluminescence. Upon cell lysis and supply of luciferase substrate, luciferase activity can be quantified by detection of luminescence. Therefore, addition of an hNPR2 activating compound and subsequent addition of detection reagent to reporter cells causes generation of luminescence in a dose dependent manner. […] This measure, also referred to as in vitro potency, is reported for all compounds tested. In all the in vitro activity experiments, CNP22 was used as a positive in-plate control for hNPR2 activation. To reduce inter-assay variation, we also report the potency of each compound relative to the potency of the CNP22 control on each plate.
Procedure: HEK293-hNPR2/GloSensor clone 35 cells were continuously cultured in selection medium (DMEM containing 10% FCS, 1% P/S, 200 μg/mL G418 and 100 μg/mL hygromycin). To perform the assay, cells were detached with TrypLE Express (Gibco #12604013), put through a 70 μm cell strainer, counted and seeded in 30 μL/well assay medium (DMEM without phenol red and with 1% P/S) at 10,000 cells/well in white 384-well plates (Perkin Elmer #6007680) overnight. The following day, test compounds were serial diluted in dilution medium (DMEM without phenol red containing 1% OVA (Sigma #A5505 lot 04M7001V), 0.01% Tween20 (Roche #33766700) and 1% P/S) and 10 μL/well of diluted test compounds were subsequently added to the cells. For each compound, ten different concentrations in the range 0.25 μM-10 μM were tested. After 30 min of incubation at 37° C. and 5% CO2, 40 μL/well Bright-Glo detection reagent (Promega #E2650) was added. […] To determine the in vitro potency or EC50 of each test compound, a four parameter logistic regression was done on the raw data for each test compound using the Python package SciPy optimize. The average EC50 values are listed as “hNPR2 0% HSA. [EC50 (nM)]” in Table 2. A relative potency was calculated by the following expression: EC50 (CNP22 in-plate control)/EC50 (test compound)*100, shown as “hNPR2 0% HSA. [EC50% rel CNP]” in Table 2. A minimum of two replicates was measured for each test compound.

| Compound | hNPR2 0% HSA. [EC50% rel CNP] | EC50 |
| --- | --- | --- |
| CC[C@H](C)[C@@H]1NC(=O)[C@H](CCCNC(=N)N)NC(=O)[C@H](CC(=O)O)NC(=O)[C@H](CC(C)C)NC(=O)[C@@H]2CCCN2C(=O)[C@H](CC(C)C)NC(=O)CNC(=O)[C@H](Cc2ccccc2)NC(=O)[C@@H](NC(=O)CNC(=O)[C@H](CCCCN)NC(=O)[C@H](CO)NC(=O)[C@H](CC(C)C)NC(=O)CNC(=O)[C@H](CCCCN)NC(=O)[C@H](CCC(=O)O)NC(=O)[C@H](CCC(N)=O)NC(=O)[C@H](C)NC(=O)CNC(=O)[C@H](CCC(=O)O)NC(=O)[C@H](Cc2ccc(O)cc2)NC(=O)COCCOCCNC(=O)COCCOCCNC(=O)CC[C@H](NC(=O)CCCCCCCCCCCCCCCCC(=O)O)C(=O)O)CSSC[C@@H](C(=O)O)NC(=O)CNC(=O)[C@H](CC(C)C)NC(=O)CNC(=O)[C@H](CO)NC(=O)[C@H](CC(C)C)NC(=O)[C@H](CO)NC(=O)CNC1=O [compound 1226] ({C18 diacid-γGlu-AEEA-AEEA}-YEGAQEKGLSKGCFGLPLDRIGSLSGLGC-OH; disulfide 13-29) | 7.5% | – |
| CC[C@H](C)[C@@H]1NC(=O)[C@H](CCCNC(=N)N)NC(=O)[C@H](CC(=O)O)NC(=O)[C@H](CC(C)C)NC(=O)[C@@H]2CCCN2C(=O)[C@H](CC(C)C)NC(=O)CNC(=O)[C@H](Cc2ccccc2)NC(=O)[C@@H](NC(=O)CNC(=O)[C@H](CO)NC(=O)[C@H](CO)NC(=O)[C@H](CC(C)C)NC(=O)CNC(=O)[C@H](CCCCN)NC(=O)[C@H](CCC(=O)O)NC(=O)[C@H](CCC(N)=O)NC(=O)[C@H](C)NC(=O)CNC(=O)[C@H](CCC(=O)O)NC(=O)[C@H](Cc2ccc(O)cc2)NC(=O)COCCOCCNC(=O)COCCOCCNC(=O)CC[C@H](NC(=O)CCCCCCCCCCCCCCCCC(=O)O)C(=O)O)CSSC[C@@H](C(=O)O)NC(=O)CNC(=O)[C@H](CC(C)C)NC(=O)CNC(=O)[C@H](CO)NC(=O)[C@H](CC(C)C)NC(=O)[C@H](CO)NC(=O)CNC1=O [compound 1228] ({C18 diacid-γGlu-AEEA-AEEA}-YEGAQEKGLSSGCFGLPLDRIGSLSGLGC-OH; disulfide 13-29) | 12.3% | – |
| CC[C@H](C)[C@@H]1NC(=O)[C@H](CCCNC(=N)N)NC(=O)[C@H](CC(=O)O)NC(=O)[C@H](CC(C)C)NC(=O)[C@H](CCCCN)NC(=O)[C@H](CC(C)C)NC(=O)CNC(=O)[C@H](Cc2ccccc2)NC(=O)[C@@H](NC(=O)CNC(=O)[C@H](CCCCN)NC(=O)[C@H](CO)NC(=O)[C@H](CC(C)C)NC(=O)CNC(=O)[C@H](CCCCN)NC(=O)[C@H](CCC(=O)O)NC(=O)[C@H](CCC(N)=O)NC(=O)[C@H](C)NC(=O)CNC(=O)[C@H](CCCCN)NC(=O)[C@H](CCC(=O)O)NC(=O)COCCOCCNC(=O)COCCOCCNC(=O)CC[C@H](NC(=O)CCCCCCCCCCCCCCCCC(=O)O)C(=O)O)CSSC[C@@H](C(=O)O)NC(=O)CNC(=O)[C@H](CC(C)C)NC(=O)CNC(=O)[C@H](CO)NC(=O)[C@H](CC(C)C)NC(=O)[C@H](CO)NC(=O)CNC1=O [compound 1229] ({C18 diacid-γGlu-AEEA-AEEA}-EKGAQEKGLSKGCFGLKLDRIGSLSGLGC-OH; disulfide 13-29) | 5.3% | 4.44 nM |
| CC[C@H](C)[C@@H]1NC(=O)[C@H](CCCNC(=N)N)NC(=O)[C@H](CC(=O)O)NC(=O)[C@H](CC(C)C)NC(=O)[C@H](CCCCN)NC(=O)[C@H](CC(C)C)NC(=O)CNC(=O)[C@H](Cc2ccccc2)NC(=O)[C@@H](NC(=O)CNC(=O)[C@H](CO)NC(=O)[C@H](CO)NC(=O)[C@H](CC(C)C)NC(=O)CNC(=O)[C@H](CCCCN)NC(=O)[C@H](CCC(=O)O)NC(=O)[C@H](CCC(N)=O)NC(=O)[C@H](C)NC(=O)CNC(=O)[C@H](CCCCN)NC(=O)[C@H](CCC(=O)O)NC(=O)COCCOCCNC(=O)COCCOCCNC(=O)CC[C@H](NC(=O)CCCCCCCCCCCCCCCCC(=O)O)C(=O)O)CSSC[C@@H](C(=O)O)NC(=O)CNC(=O)[C@H](CC(C)C)NC(=O)CNC(=O)[C@H](CO)NC(=O)[C@H](CC(C)C)NC(=O)[C@H](CO)NC(=O)CNC1=O [compound 1230] ({C18 diacid-γGlu-AEEA-AEEA}-EKGAQEKGLSSGCFGLKLDRIGSLSGLGC-OH; disulfide 13-29) | 4.2% | 6.98 nM |
| CC[C@H](C)[C@@H]1NC(=O)[C@H](CCCNC(=N)N)NC(=O)[C@H](CC(=O)O)NC(=O)[C@H](CC(C)C)NC(=O)[C@H](CCCCN)NC(=O)[C@H](CC(C)C)NC(=O)CNC(=O)[C@H](Cc2ccccc2)NC(=O)[C@@H](NC(=O)CNC(=O)[C@H](CCCCN)NC(=O)[C@H](CO)NC(=O)[C@H](CC(C)C)NC(=O)CNC(=O)[C@H](CCCCN)NC(=O)[C@H](CCC(=O)O)NC(=O)[C@H](CCC(N)=O)NC(=O)[C@H](C)NC(=O)CNC(=O)[C@H](CCC(N)=O)NC(=O)[C@H](CCC(=O)O)NC(=O)COCCOCCNC(=O)COCCOCCNC(=O)CC[C@H](NC(=O)CCCCCCCCCCCCCCCCC(=O)O)C(=O)O)CSSC[C@@H](C(=O)O)NC(=O)CNC(=O)[C@H](CC(C)C)NC(=O)CNC(=O)[C@H](CO)NC(=O)[C@H](CC(C)C)NC(=O)[C@H](CO)NC(=O)CNC1=O [compound 1231] ({C18 diacid-γGlu-AEEA-AEEA}-EQGAQEKGLSKGCFGLKLDRIGSLSGLGC-OH; disulfide 13-29) | 4.1% | 5.62 nM |
| CC[C@H](C)[C@@H]1NC(=O)[C@H](CCCNC(=N)N)NC(=O)[C@H](CC(=O)O)NC(=O)[C@H](CC(C)C)NC(=O)[C@H](CCCCN)NC(=O)[C@H](CC(C)C)NC(=O)CNC(=O)[C@H](Cc2ccccc2)NC(=O)[C@@H](NC(=O)CNC(=O)[C@H](CCCCN)NC(=O)[C@H](CO)NC(=O)[C@H](CC(C)C)NC(=O)CNC(=O)[C@H](CCCCN)NC(=O)[C@H](CCC(=O)O)NC(=O)[C@H](CCC(N)=O)NC(=O)[C@H](C)NC(=O)CNC(=O)[C@H](CCCCN)NC(=O)[C@H](Cc2ccc(O)cc2)NC(=O)COCCOCCNC(=O)COCCOCCNC(=O)CC[C@H](NC(=O)CCCCCCCCCCCCCCCCC(=O)O)C(=O)O)CSSC[C@@H](C(=O)O)NC(=O)CNC(=O)[C@H](CC(C)C)NC(=O)CNC(=O)[C@H](CO)NC(=O)[C@H](CC(C)C)NC(=O)[C@H](CO)NC(=O)CNC1=O [compound 1232] ({C18 diacid-γGlu-AEEA-AEEA}-YKGAQEKGLSKGCFGLKLDRIGSLSGLGC-OH; disulfide 13-29; C-terminus assumed) | 16.0% | 1.63 nM |
